Experimental data taken from patent US9926281B2 (priority 2014, dated 2018).

Assays:
human ADAMTS-5 = human ADAMTS-5 (Homo sapiens (Human), UniProt Q9UNA0); conditions: read-out: hADAMTS-5 potency IC50
Experimental: Finally, the fluorescence is read on the Envision (Perkin Elmer) after an incubation of 90 min at 37° C.

human TACE = human TACE (Homo sapiens (Human), UniProt P78536); conditions: read-out: TACE potency IC50
human MMP13 = human MMP13 (Homo sapiens (Human), UniProt P45452); conditions: read-out: hMMP-13 potency IC50
Experimental: Human MMP13 is preactivated by incubated the enzyme in the same buffer complemented with 1 mM freshly prepared p-Aminophenylmercuric acetate (AMPA) for 1 hour at 37° C.

human MMP14 = human MMP14 (Homo sapiens (Human), UniProt P50281); conditions: read-out: hMMP-14 potency IC50

Chain of human ADAMTS-5 (Q9UNA0 262-930): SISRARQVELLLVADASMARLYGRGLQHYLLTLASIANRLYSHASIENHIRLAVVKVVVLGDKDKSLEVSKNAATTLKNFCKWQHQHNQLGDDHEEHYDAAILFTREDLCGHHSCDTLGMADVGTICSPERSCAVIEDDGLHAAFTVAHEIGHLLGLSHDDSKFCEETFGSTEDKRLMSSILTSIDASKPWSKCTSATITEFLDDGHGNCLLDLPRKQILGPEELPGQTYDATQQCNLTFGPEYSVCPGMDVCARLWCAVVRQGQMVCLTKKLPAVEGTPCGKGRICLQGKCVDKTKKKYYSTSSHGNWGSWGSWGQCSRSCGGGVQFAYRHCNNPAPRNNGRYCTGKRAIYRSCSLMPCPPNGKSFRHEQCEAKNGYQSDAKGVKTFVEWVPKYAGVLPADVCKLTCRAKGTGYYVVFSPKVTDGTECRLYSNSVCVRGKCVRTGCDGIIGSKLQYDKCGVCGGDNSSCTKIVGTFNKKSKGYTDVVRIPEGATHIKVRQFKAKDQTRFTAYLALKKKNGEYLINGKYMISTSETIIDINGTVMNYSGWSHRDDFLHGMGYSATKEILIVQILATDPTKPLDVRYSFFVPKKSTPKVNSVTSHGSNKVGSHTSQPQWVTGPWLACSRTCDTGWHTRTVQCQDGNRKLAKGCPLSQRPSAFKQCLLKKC
Chain of human TACE (P78536 whole entry, looked up, change not shown): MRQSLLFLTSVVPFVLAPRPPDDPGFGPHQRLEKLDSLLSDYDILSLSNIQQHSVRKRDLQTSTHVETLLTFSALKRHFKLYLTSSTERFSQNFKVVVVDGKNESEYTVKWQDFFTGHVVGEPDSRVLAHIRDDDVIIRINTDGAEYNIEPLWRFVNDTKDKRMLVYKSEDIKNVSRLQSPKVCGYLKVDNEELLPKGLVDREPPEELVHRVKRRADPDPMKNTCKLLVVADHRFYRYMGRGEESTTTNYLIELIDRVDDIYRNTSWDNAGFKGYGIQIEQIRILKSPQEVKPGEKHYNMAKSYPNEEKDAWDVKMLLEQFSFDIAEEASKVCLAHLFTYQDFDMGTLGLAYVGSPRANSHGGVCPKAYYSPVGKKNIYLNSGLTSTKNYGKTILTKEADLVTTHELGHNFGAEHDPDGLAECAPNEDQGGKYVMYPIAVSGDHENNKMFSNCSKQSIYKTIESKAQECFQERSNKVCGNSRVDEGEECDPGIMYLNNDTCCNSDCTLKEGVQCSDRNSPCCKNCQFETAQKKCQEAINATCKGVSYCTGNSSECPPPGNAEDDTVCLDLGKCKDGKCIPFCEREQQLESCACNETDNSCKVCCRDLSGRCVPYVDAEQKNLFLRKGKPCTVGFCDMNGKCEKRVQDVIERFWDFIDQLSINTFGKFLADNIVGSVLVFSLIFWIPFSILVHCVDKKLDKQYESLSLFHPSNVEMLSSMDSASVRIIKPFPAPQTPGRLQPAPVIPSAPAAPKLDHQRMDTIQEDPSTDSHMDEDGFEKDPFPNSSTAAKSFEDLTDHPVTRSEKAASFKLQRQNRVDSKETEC

| Compound | IC50 (human ADAMTS-5) [nM] | IC50 (human TACE) [nM] | IC50 (human MMP13) [nM] | IC50 (human MMP14) [nM] |
| --- | --- | --- | --- | --- |
| CC(CC1(C2CN(C(=O)OC(C)(C)C)C2)NC(=O)NC1=O)C(=O)N1CCN(c2ccc(F)c(F)c2)CC1 (centres unmarked) [compound 234, tert-butyl 3-[4-[3-[4-(3,4-difluorophenyl)piperazin-1-yl]-2-methyl-3-oxo-propyl]-2,5-dioxo-imidazolidin-4-yl]azetidine-1-carboxy late] | 28 | > 4000 | 5.6 | 7 |
| COCC1(CC(C)C(=O)N2CCN(c3cc(F)ccc3C)CC2)NC(=O)NC1=O (centres unmarked) [compound 230, 5-[3-[4-(5-fluoro-2-methyl-phenyl)piperazin-1-yl]-2-methyl-3-oxo-propyl]-5-(methoxymethyl)imidazolidine-2,4-dione] | 24 | 207 | > 20000 | > 20000 |
| CC(=O)NCC1(CCC(=O)N2CCN(c3cc(Cl)cc(Cl)c3)CC2)NC(=O)NC1=O (centres unmarked) [Cpd 223, N-[[4-[3-[4-(3,5-dichlorophenyl)piperazin-1-yl]-3-oxo-propyl]-2,5-dioxo-imidazolidin-4-yl]methyl]acetamide] | 70 | > 4000 | > 20000 | > 20000 |
| C[C@H]1CN(C(=O)CCC2(c3cn(C)cn3)NC(=O)NC2=O)CCN1c1cc(F)cc(Cl)c1 (stereo partly drawn) [compound 389, 5-[3-[(3S)-4-(3-chloro-5-fluoro-phenyl)-3-methyl-piperazin-1-yl]-3-oxo-propyl]-5-(1-methylimidazol-4-yl)imidazolidine-2,4-dione] | 40 | > 4000 |  | > 20000 |
| CC(CC1(C2CC2)NC(=O)NC1=O)C(=O)N1CCN(c2cccnc2)[C@@H](C)C1 (stereo partly drawn) [compound 351, 5-cyclopropyl-5-[2-methyl-3-[(3S)-3-methyl-4-(3-pyridyl)piperazin-1-yl]-3-oxo-propyl]imidazolidine-2,4-dione] | 35 | > 20000 |  | 3840 |
| COCC1(CC(C)C(=O)N2CCN(c3cccc(F)c3)[C@@H](C)C2)NC(=O)NC1=O (stereo partly drawn) [compound 229, 5-[3-[(3S)-4-(3-fluorophenyl)-3-methyl-piperazin-1-yl]-2-methyl-3-oxo-propyl]-5-(methoxymethyl)imidazolidine-2,4-dione] | 31 | > 4000 | 3850 | 682 |
| CC(CC1(C)NC(=O)NC1=O)C(=O)N1CCN(c2cncc(Cl)c2)[C@@H](C)C1 (stereo partly drawn) [compound 276, 5-[3-[(3S)-4-(5-chloro-3-pyridyl)-3-methyl-piperazin-1-yl]-2-methyl-3-oxo-propyl]-5-methyl-imidazolidine-2,4-dione] | 115 | > 4000 |  | > 20000 |
| C[C@H]1CN(C(=O)CCC2(C3CC3)NC(=O)NC2=O)CCN1c1cccnc1 (stereo partly drawn) [compound 259, 5-cyclopropyl-5-[3-[(3S)-3-methyl-4-(3-pyridyl)piperazin-1-yl]-3-oxo-propyl]imidazolidine-2,4-dione] | 224 | > 20000 |  | > 20000 |
| C[C@H]1CN(C(=O)CCC2(c3cccnc3)NC(=O)NC2=O)CCN1c1ccc(F)c(Cl)c1 (stereo partly drawn) [compound 316, 5-[3-[(3S)-4-(3-chloro-4-fluoro-phenyl)-3-methyl-piperazin-1-yl]-3-oxo-propyl]-5-(3-pyridyl)imidazolidine-2,4-dione] | 61 | > 4000 |  | > 20000 |
| CC(CC1(C)NC(=O)NC1=O)C(=O)N1CCN(c2cncc(F)c2)[C@@H](C)C1 (stereo partly drawn) [compound 277, 5-[3-[(3S)-4-(5-fluoro-3-pyridyl)-3-methyl-piperazin-1-yl]-2-methyl-3-oxo-propyl]-5-methyl-imidazolidine-2,4-dione] | 152 | > 4000 |  | > 20000 |
| Cc1nc(C2(CCC(=O)N3CCN(c4cc(F)cc(F)c4)[C@@H](C)C3)NC(=O)NC2=O)c(C)o1 (stereo partly drawn) [compound 396, 5-[3-[(3S)-4-(3,5-difluorophenyl)-3-methyl-piperazin-1-yl]-3-oxo-propyl]-5-(2,5-dimethyloxazol-4-yl)imidazolidine-2,4-dione] | 53 | > 4000 |  | 7 |
| C[C@H]1CN(C(=O)CCC2(C3CC3)NC(=O)NC2=O)CCN1c1cccc(-c2cn[nH]c2)c1 (stereo partly drawn) [compound 282, 5-cyclopropyl-5-[3-[(3S)-3-methyl-4-[3-(1H-pyrazol-4-yl)phenyl]piperazin-1-yl]-3-oxo-propyl]imidazolidine-2,4-dione] | 110 | > 20000 |  | > 20000 |
| Cc1cccc(C2(CCC(=O)N3CCN(c4cccc(F)c4)[C@@H](C)C3)NC(=O)NC2=O)n1 (stereo partly drawn) [compound 308, 5-[3-[(3S)-4-(3-fluorophenyl)-3-methyl-piperazin-1-yl]-3-oxo-propyl]-5-(6-methyl-2-pyridyl)imidazolidine-2,4-dione] | 59 | > 4000 |  | > 20000 |
| Cc1cccc(C2(CCC(=O)N3CCN(c4cc(F)cc(Cl)c4)[C@@H](C)C3)NC(=O)NC2=O)n1 (stereo partly drawn) [compound 307, 5-[3-[(3S)-4-(3-chloro-5-fluoro-phenyl)-3-methyl-piperazin-1-yl]-3-oxo-propyl]-5-(6-methyl-2-pyridyl)imidazolidine-2,4-dione] | 44 | 3590 |  | > 20000 |
| C[C@H]1CN(C(=O)CCC2(c3cnccn3)NC(=O)NC2=O)CCN1c1cc(F)cc(Cl)c1 (stereo partly drawn) [compound 326, 5-[3-[(3S)-4-(3-chloro-5-fluoro-phenyl)-3-methyl-piperazin-1-yl]-3-oxo-propyl]-5-pyrazin-2-yl-imidazolidine-2,4-dione] | 52 | > 4000 |  | > 4000 |
| CCC1(C[C@H](C)C(=O)N2CCN(c3cncc(Cl)c3)[C@@H](C)C2)NC(=O)NC1=O (stereo partly drawn) [compound 359, 5-[(2S)-3-[4-(5-chloro-3-pyridyl)-3-methyl-piperazin-1-yl]-2-methyl-3-oxo-propyl]-5-ethyl-imidazolidine-2,4-dione] | 83 | > 12000 |  | 978 |
| COCC1(CC(C)C(=O)N2CCN(c3cccc(Cl)c3C)[C@@H](C)C2)NC(=O)NC1=O (stereo partly drawn) [compound 232, 5-[3-[(3S)-4-(3-chloro-2-methyl-phenyl)-3-methyl-piperazin-1-yl]-2-methyl-3-oxo-propyl]-5-(methoxymethyl)imidazolidine-2,4-dione] | 47 | > 4000 | > 20000 | > 20000 |
| C[C@H]1CN(C(=O)CCC2(c3ccncc3)NC(=O)NC2=O)CCN1c1ccc(F)c(Cl)c1 (stereo partly drawn) [compound 288, 5-[3-[(3S)-4-(3-chloro-4-fluoro-phenyl)-3-methyl-piperazin-1-yl]-3-oxo-propyl]-5-(4-pyridyl)imidazolidine-2,4-dione] | 72 | > 4000 |  | > 4000 |
| CC(CC1(C)NC(=O)NC1=O)C(=O)N1CCN(c2cccc(-c3cn[nH]c3)c2)[C@@H](C)C1 (some centres unmarked) [compound 371] | 42 | > 3730 |  | 682 |
| Cc1cncc(N2CCN(C(=O)C(C)CC3(C4CC4)NC(=O)NC3=O)C[C@@H]2C)c1 (stereo partly drawn) [compound 342, 5-cyclopropyl-5-[2-methyl-3-[(3S)-3-methyl-4-(5-methyl-3-pyridyl)piperazin-1-yl]-3-oxo-propyl]imidazolidine-2,4-dione] | 39 | > 4000 |  | 2600 |
| Cc1ccc(C2(CCC(=O)N3CCN(c4ccc(F)c(Cl)c4)[C@@H](C)C3)NC(=O)NC2=O)cn1 (stereo partly drawn) [compound 287, 5-[3-[(3S)-4-(3-chloro-4-fluoro-phenyl)-3-methyl-piperazin-1-yl]-3-oxo-propyl]-5-(6-methyl-3-pyridyl)imidazolidine-2,4-dione] | 52 | > 4000 |  | > 4000 |
| C[C@H]1CN(C(=O)CCC2(C3CC3)NC(=O)NC2=O)CCN1c1cccc(Br)c1 (stereo partly drawn) [compound 270, 5-[3-[(3S)-4-(3-bromophenyl)-3-methyl-piperazin-1-yl]-3-oxo-propyl]-5-cyclopropyl-imidazolidine-2,4-dione] | 76 | > 4000 |  | > 4000 |
| C[C@H]1CN(C(=O)CCC2(C3CC3)NC(=O)NC2=O)CCN1c1cncc(F)c1 (stereo partly drawn) [compound 261, 5-cyclopropyl-5-[3-[(3S)-4-(5-fluoro-3-pyridyl)-3-methyl-piperazin-1-yl]-3-oxo-propyl]imidazolidine-2,4-dione] | 165 | > 20000 |  | > 20000 |
| CC(CC1NC(=O)NC1=O)C(=O)N1CCN(c2ccc(F)c(F)c2)[C@@H](C)C1 (stereo partly drawn) [compound 251, 5-[3-[(3S)-4-(3,4-difluorophenyl)-3-methyl-piperazin-1-yl]-2-methyl-3-oxo-propyl]imidazolidine-2,4-dione] | 94 | > 12000 |  | > 4000 |
| C[C@H]1CN(C(=O)CCC2(c3cnccn3)NC(=O)NC2=O)CCN1c1cccc(F)c1 (stereo partly drawn) [compound 350, 5-[3-[(3S)-4-(3-fluorophenyl)-3-methyl-piperazin-1-yl]-3-oxo-propyl]-5-pyrazin-2-yl-imidazolidine-2,4-dione] | 62 | > 20000 |  | 1310 |
| CC(CC1(C)NC(=O)NC1=O)C(=O)N1CCN(c2ccc(F)cc2)[C@@H](C)C1 (stereo partly drawn) [compound 365, 5-[3-[(3S)-4-(4-fluorophenyl)-3-methyl-piperazin-1-yl]-2-methyl-3-oxo-propyl]-5-methyl-imidazolidine-2,4-dione] | 72 | > 9330 |  | > 20000 |
| C[C@@H](C[C@@]1(C)NC(=O)NC1=O)C(=O)N1CCN(c2cc(F)cc(-c3cn[nH]c3)c2)[C@@H](C)C1 [compound 375, 5-[3-[(3S)-4-[3-fluoro-5-(1H-pyrazol-4-yl)phenyl]-3-methyl-piperazin-1-yl]-2-methyl-3-oxo-propyl]-5-methyl-imidazolidine-2,4-dione] | 30 | 1130 |  | > 20000 |
